Consider 14 molecules from the NIST ThermoML archive (doi:10.1016/j.jct.2015.03.001).

Molecules are shown by their SMILES. Numbers after ± are expanded uncertainties.

The nature of data set [1]: relative permittivity at various frequencies (dimensionless). The conditions noted are these: 99 kPa, Liquid, Frequency=2 MHz, Parallel plate capacitor.
A short description of data set [2]: relative permittivity at various frequencies (dimensionless); xn = mol fraction of the nth substance listed. Particulars: 99 kPa, Liquid, Frequency=2 MHz, Parallel plate capacitor, x1 = 1.
Data set [3] can be described thus: refractive index (Na D-line) (dimensionless); xn = mol fraction of the nth substance listed. The conditions noted are these: 99 kPa, Liquid, Abbe refractometer, x1 = 1.
The nature of data set [4]: refractive index (Na D-line) (dimensionless). The conditions noted are these: 298.15 K; 101.33 kPa; Liquid; Abbe refractometer.

With `CC(C)CCl` [1-chloro-2-methylpropane], the relative permittivity in data set [1] (283.15 K) was 7.472 ± 0.075; in data set [1] (298.15 K), 7.074 ± 0.071; in data set [1] (313.15 K) it was 6.657 ± 0.067.

Take `CCCCCl` [1-chlorobutane]: the relative permittivity is given as 7.552 ± 0.076 in data set [1] (283.15 K), 7.157 ± 0.072 in data set [1] (298.15 K) and 6.757 ± 0.068 in data set [1] (313.15 K).

For the molecule `CC(C)(C)Cl` [2-chloro-2-methylpropane], the values for the relative permittivity in data set [1] (283.15 K), in data set [1] (298.15 K) and in data set [1] (313.15 K) were 10.429 ± 0.1, 9.67 ± 0.097 and 8.952 ± 0.09, respectively.

On to `CCC(C)Cl` (configuration not stated) [2-chlorobutane], for which the relative permittivity in data set [1] (283.15 K) worked out at 9.323 ± 0.093; in data set [1] (298.15 K), 8.652 ± 0.087; in data set [1] (313.15 K) it was 8.07 ± 0.081.

Consider `CCCCCCC` [heptane], for which the relative permittivity in data set [1] (283.15 K) worked out at 1.943 ± 0.019; in data set [1] (298.15 K) it was 1.923 ± 0.019; in data set [1] (313.15 K), 1.902 ± 0.019.

By refractive index is commonly meant the speed of light in vacuum divided by its phase velocity in the sample. For the molecule `CCCCCCC` [heptane] + CC(C)(C)Cl, the relative permittivity in data set [2] (283.15 K) is recorded as 1.943 ± 0.019; in data set [2] (298.15 K), 1.923 ± 0.019; in data set [2] (313.15 K), 1.902 ± 0.019. Besides, the values for the refractive index in data set [3] (283.15 K), in data set [3] (298.15 K) and in data set [3] (313.15 K) were 1.3929 ± 0.00031, 1.3852 ± 0.00031 and 1.37735 ± 0.00031, respectively.

`CCCCCCC` [heptane] + CC(C)CCl: the results for the relative permittivity in data set [2] (283.15 K), in data set [2] (298.15 K) and in data set [2] (313.15 K) were 1.943 ± 0.019, 1.923 ± 0.019 and 1.902 ± 0.019, respectively. In addition, the refractive index was 1.3929 ± 0.00031 in data set [3] (283.15 K), 1.3852 ± 0.00031 in data set [3] (298.15 K) and 1.37735 ± 0.00031 in data set [3] (313.15 K).

In the case of `CCCCCCC` [heptane] + CCC(C)Cl, the results for the relative permittivity in data set [2] (283.15 K), in data set [2] (298.15 K) and in data set [2] (313.15 K) were 1.943 ± 0.019, 1.923 ± 0.019 and 1.902 ± 0.019, respectively. Also, the results for the refractive index in data set [3] (283.15 K), in data set [3] (298.15 K) and in data set [3] (313.15 K) were 1.3929 ± 0.00031, 1.3852 ± 0.00031 and 1.37735 ± 0.00031, respectively.

With `CCCCCCC` [heptane] + CCCCCl, the relative permittivity in data set [2] (283.15 K) is 1.943 ± 0.019; in data set [2] (298.15 K), 1.923 ± 0.019; in data set [2] (313.15 K) it was 1.902 ± 0.019. The refractive index in data set [3] (283.15 K) worked out at 1.3929 ± 0.00031; in data set [3] (298.15 K), 1.3852 ± 0.00031; in data set [3] (313.15 K), 1.37735 ± 0.00031.

For `CCCCCC` [hexane], the relative permittivity in data set [1] (283.15 K) was found to be 1.905 ± 0.019; in data set [1] (298.15 K) it was 1.892 ± 0.019; in data set [1] (313.15 K), 1.873 ± 0.019. For the same molecule, the refractive index in data set [4] turned out to be 1.37223 ± 0.00031.

`CCCCCC` [hexane] + CC(C)(C)Cl: the relative permittivity in data set [2] (283.15 K) came out at 1.905 ± 0.019; in data set [2] (298.15 K) it was 1.892 ± 0.019; in data set [2] (313.15 K), 1.873 ± 0.019. The refractive index is listed as 1.3805 ± 0.00031 in data set [3] (283.15 K), 1.37223 ± 0.00031 in data set [3] (298.15 K) and 1.36391 ± 0.00031 in data set [3] (313.15 K).

On to `CCCCCC` [hexane] + CC(C)CCl, for which the relative permittivity in data set [2] (283.15 K) came out at 1.905 ± 0.019; in data set [2] (298.15 K) it was 1.892 ± 0.019; in data set [2] (313.15 K), 1.873 ± 0.019. Also, the values for the refractive index in data set [3] (283.15 K), in data set [3] (298.15 K) and in data set [3] (313.15 K) were 1.3805 ± 0.00031, 1.37223 ± 0.00031 and 1.36391 ± 0.00031, respectively.

Consider `CCCCCC` [hexane] + CCC(C)Cl, for which the relative permittivity is listed as 1.905 ± 0.019 in data set [2] (283.15 K), 1.892 ± 0.019 in data set [2] (298.15 K) and 1.873 ± 0.019 in data set [2] (313.15 K). For the same molecule, the refractive index in data set [3] (283.15 K) came to 1.3805 ± 0.00031; in data set [3] (298.15 K) it was 1.37223 ± 0.00031; in data set [3] (313.15 K) it was 1.36391 ± 0.00031.

In the case of `CCCCCC` [hexane] + CCCCCl, the relative permittivity in data set [2] (283.15 K) is 1.905 ± 0.019; in data set [2] (298.15 K), 1.892 ± 0.019; in data set [2] (313.15 K) it was 1.873 ± 0.019. Also, the refractive index in data set [3] (283.15 K) is reported as 1.3805 ± 0.00031; in data set [3] (298.15 K) it was 1.37223 ± 0.00031; in data set [3] (313.15 K), 1.36391 ± 0.00031.
